The record followed here is patent US11130902B2, “Gas hydrate inhibitors” (Lamberti SPA, priority 2016, dated 2021).

Data set [1] is described as follows: Foaming power tests (Waring Blender). The data set is classed as physicochemical. The following applies: 30 seconds at 8000 rpm; for FS (foam stability, time to regenerate 50 mL of liquid), Test 4 / FV (foam volume), Test 4: 1% by weight solution in 4% sea salt water solution; for FS (foam stability, time to regenerate 50 mL of liquid), Test 3 / FV (foam volume), Test 3: 1% by weight solution in deionized water. How it is done: The foam volume (FV) and the foam stability (FS) were determined by stirring for 30 seconds at high speed (8000 rpm) with a Waring Blender 100 mL of a 1% by weight solution of the inhibitors in deionized water (Test 3) or in a 4% sea salt water solution (Test 4). The foamed composition is then transferred into a graded cylinder for the evaluation of the foam volume and the stability of the foam.
FV represent the volume in mL of foam at the end of the stirring. FS is the time in seconds required to the foamed solution to regenerate 50 mL of liquid. The longer the time, the higher the stability of the foam.

A short description of data set [2]: Corrosion tests, Linear Polarization Resistance (LPR). As to conditions: 10 ppm by volume inhibitor, synthetic brine, CO2, 200 ppm H2S, 80° C., compared to the blank; for % Protection, 1 hour: after 1 hour; for % Protection, 16 hours: after 16 hours. How it is done:
The Linear Polarization Resistance (LPR) measurements were made with a Gamry Electrochemical Instrument system.
The LPR corrosion tests were conducted in 1 L Pyrex jacketed cells. 900 mL of synthetic brine (50/50 v/v 4.0% Seasalt water/Fresh Water) were loaded in the cell placed on a magnetic stirrer, deaerated overnight with CO2 and, finally, saturated with 200 ppm H2S gas just before testing. A clean C1018 Mild Steel rod was inserted in the corrosion cell assembly as sample probe. A graphite rod was used as the counter electrode. The temperature of the solution was brought to 80° C. for the duration of the tests and CO2 was continuously purged at a constant flow rate. The (Test 4) inhibitors were added at 10 ppm by volume of test solution.
The results are reported in Table 4 as % of protection after a fixed period of time compared to the blank, the test solution without any inhibitor, which is considered 100% corrosion.

The nature of data set [3]: Gas hydrate inhibition test (Rocking Cell RC5). Further details: key: FAIL: The ball is stuck and/or large agglomerations or solid crystals and/or visible deposits on the cell walls.; PASS: The ball is free; solid crystals might be present, but agglomerates (large or small) break up with agitation. As to conditions: 2% by weight inhibitor, 4° C., visual evaluation after 16 hours shut-in; for gas hydrate inhibition, Test 2: 20/80 v/v deionized water/diesel; for gas hydrate inhibition, Test 1: 50/50 v/v 4% wt seasalt water/diesel. How it is done:
Gas Hydrate Inhibition Test
The performances of the gas hydrate inhibitors of the invention were evaluated with a Rocking Cell RC5 by PSL Systemtechnik.
Test Fluids • Hydrocarbon: Diesel • Aq. Phase: 4% wt seasalt water or deionized water • Gas: Mix of methane, ethane, propane and butane (various isomers)
The sapphire test cells, containing a stainless steel ball, were filled with the fluids (see Table 1) and 2% by weight of inhibitor and pressurized with the gas mixture.
Each cell was the subjected to a cycle of cooling and rocking consisting of three steps: 1) flowing condition, 2) shut-in and 3) re-start flowing condition. • 1) The pressurized cells were cooled down to 4° C. over a period of 5 hours while rocking. After reaching 4° C., the cells were rocked for 12 hours. • 2) The rocking was stopped and the test cells were kept in horizontal position (shut-in) for 16 hours. • 3) At the end of the shut-in period, rocking was re-started for 4 hours. Finally the cells were heated back up to 20° C.
At the beginning of the third step, the content of the cells was visually evaluated.
Each cycle was replicated three times and the results registered.
The results of the gas hydrate inhibition tests (Table 2) are reported according to the following scale: • FAIL: The ball is stuck and/or large agglomerations or solid crystals and/or visible deposits on the cell walls. • PASS: The ball is free; solid crystals might be present, but agglomerates (large or small) break up with agitation.

With “N,N-dibutyl-N-ethyl-cocooxyethyl ammonium chloride”, in data set [1], the “FS (foam stability, time to regenerate 50 mL of liquid), Test 4” value (“FS … Test 4” for short) is 59 s; the “FV (foam volume), Test 4” value was found to be 172 mL; the “FS (foam stability, time to regenerate 50 mL of liquid), Test 3” value (shortened to “FS … Test 3”) came out at 97 s; the “FV (foam volume), Test 3” value was 210 mL. Moreover, in data set [2], the “% Protection, 1 hour” value was found to be 78.9% and the “% Protection, 16 hours” value is recorded as 87.9%.

“N,N-dibutyl-N-ethyl-cocooxyethyl ammonium ethyl sulfate”: in data set [1], the “FS … Test 4” value worked out at 46 s; the “FV (foam volume), Test 4” value was determined as 160 mL; the “FS … Test 3” value turned out to be 70 s; the “FV (foam volume), Test 3” value is recorded as 185 mL. In data set [2], the “% Protection, 1 hour” value was determined as 81.4% and the “% Protection, 16 hours” value came out at 90.2%. Further, in data set [3], the “gas hydrate inhibition, Test 2” value is on record as “PASS” and the “gas hydrate inhibition, Test 1” value is given as “PASS”.

On to “N,N-dibutyl-N-ethyl-soyaoxyethyl ammonium ethyl sulfate”, for which, in data set [1], the “FS … Test 4” value is 118 s; the “FV (foam volume), Test 4” value is 230 mL; the “FS … Test 3” value stood at 180 s; the “FV (foam volume), Test 3” value is recorded as 320 mL.

As to benzylcocodimethyl ammonium chloride, in data set [1], the “FS … Test 4” value was found to be 215 s; the “FV (foam volume), Test 4” value is 430 mL; the “FS … Test 3” value turned out to be 260 s; the “FV (foam volume), Test 3” value came out at 480 mL. Besides, in data set [2], the “% Protection, 1 hour” value was found to be 79.7% and the “% Protection, 16 hours” value was determined as 89.5%. Further, in data set [3], the “gas hydrate inhibition, Test 2” value is listed as “FAIL” and the “gas hydrate inhibition, Test 1” value is “FAIL”.
